The test system of assay [1] is cultured PBMCs of the allergic donors. The assay can be described thus: ELISPOT of IL-5 or IFNg production by cultured PBMCs of TG allergic donors in response to peptide. In kind it is cell-based, human. The following applies: for No of PG+ & th+ peptides per NTGA / No of PP & Th+ peptides per NTGA: Table 6; for No of PG+ & th+ peptides per NTGA: PG+ peptides recognized by T cells of grass allergic donors (n=20); for No of PP & Th+ peptides per NTGA: PP peptides recognized by T cells of grass allergic donors (n=20); for # Th+: Table 7, peptides per NTGA recognized by T cells of grass allergic donors (n=20); for NTGA's containing at least one T cell epitope, Th+ (Col 2): NTGA number given = criterion met, TG allergic donors n=20. The text has this:
Table 1 indicates for each of the 397 PG+ peptides in which non-grass pollen species a matching peptide with either less than 3, less than 2 or zero mismatches are found. The number of TG grass allergic donors (n=20) with an in vitro T cell response to the TG peptide sequence is also shown.
A set of 93 proteins from Timothy grass (TG) pollen and the assembly of 822 peptides (15 mers) predicted to promiscuously bind HLA class II molecules shown in Table 9 and the immune reactivity in allergic donors have been reported in PCT application WO 2013/119863. […] Immune reactivity was determined by the production of IL-5 or IFNg from cultured PBMCs of the allergic donors in response to stimulation with a peptide and IL-5 and IFNg were measured by ELISPOT as described in Oseroff C et al, 2010.
In short, T cell immune reactivity was determined using PBMCs isolated from study participants and stored in liquid nitrogen until further use. For experimental testing, PBMCs were thawed and expanded in vitro with TG pollen extract (50 μg/mL) or the peptide pool ([…]). The TG extract and peptide pools had each been previously titrated to determine optimal stimulation concentrations.
Cytokine production by cultured PBMCs in response to antigen stimulation was measured by ELISPOT. Cells (1×10^5 cells/well) were plated and incubated with peptide (10 μg/mL), the peptide pool (5 μg/mL), or the TG extract (50 μg/mL). Phytohaemagglutinin (10 μg/mL) and medium alone were used as positive and negative controls, respectively. Samples were considered to produce a cytokine if 100 spot-forming cells (SFCs)/10^6 PBMCs were detected, with P .05 and a stimulation index of 2 or more. Criteria for individual peptides were the same except that a minimum of 20 SFCs were required for a sample to be counted as positive.
Table 3 lists the 397 PG+ peptides and indicates for each non-grass pollen species whether a matching peptide with either less than 3, less than 2 or zero mismatches could be detected. The immune reactivity of the TG peptide was assessed as the number of TG grass allergic donors (n=20) having in vitro T cell response against the TG peptide.

Assay [2] has as its system PBMCs from Phl p reactive donors. The assay is described as follows: Cross-reactivity: IL-5 ELISPOT of PBMCs expanded 14 days with individual peptides, response to pollen extracts. The following applies: for Ant o % Reactivity: Ant o (grass) pollen extract; for Bet v % Reactivity: Bet v (tree) pollen extract; for Lol p % Reactivity: Lol p (grass) pollen extract; for Que a % Reactivity: Que a (tree) pollen extract; for Controls, Relevant Pool: control: response to relevant pool of cells expanded with the peptide; for % Reactivity, Fra e: reactivity of Fra e (tree) pollen extract as percentage of the reactivity to the peptide, cells expanded with the peptide for 14 days. The class given is cell-based, human. As to the method: For each peptide, TG allergic donors were selected that reacted to the peptide after expanding PBMCs in vitro with TG extract. […] Reponses to extracts and peptide pools are expressed as the relative fraction of the response to the peptide itself, and capped at 100%.
Each peptide was used to stimulate cells and cross reactivity was tested for extracts from each pollen species. The number of mismatches (# of mm) for each peptide compared to the pollen species and the reactivity of the extracts as a percentage of the reactivity compared to the peptide are shown.
PBMCs from Phl p reactive donors were expanded with individual PG+ peptides as well as peptides derived from major allergens of Phl p for 14 days (peptides shown in Table 10). For each peptide, the mismatch to a corresponding sequence in a non-grass pollen species or a pollen species other than Phl p were determined. Cytokine IL-5 responses were measured in response to the peptide itself, Phl p extract and extracts of the other pollen species. Reponses to extracts and peptide pools were expressed as the relative fraction of the response to the peptide itself and plotted as a function of conservation of the peptide in the different extracts (FIG. 1).

[3] abbreviates: reactivity of extract as percentage of reactivity to the peptide, PBMCs expanded 14 days with the peptide.

Results on 22 substances are retold here after patent publication US20160287696A1, “PAN POLLEN IMMUNOGENS AND METHODS AND USES FOR IMMUNE RESPONSE MODULATION” (LA JOLLA INSTITUTE FOR ALLERGY AND IMMUNOLOGY, priority 2013, published 2016).

“And” between values parts separate entries of the source, which are not always exact repeats. Equal values may be shown once.

Consider 5 (KLAMQEFMILPTGAS) [compound 5], for which, in assay [1], the “No of PG+ & th+ peptides per NTGA” value is 0, the “No of PP & Th+ peptides per NTGA” value was determined as 0 and the “# Th+” value was determined as 0.
As for 12 (RAAVPSGASTGVYEA) [compound 12], in assay [1], the “# Th+” value worked out at 0.
Same read-out and setting: under 14 (LGAAAVYAGLKFRAP) [compound 14] stands 0; under 15 (GASTGVYEALELRDG) [compound 15], 0.
In the case of 16 (QTELDNFMVHQLDGT) [compound 16], in assay [1], the “NTGA's containing at least one T cell epitope, Th+ (Col 2)” value (“NTGA's containing” below) stood at 16; the “No of PG+ & th+ peptides per NTGA” value is 2; the “No of PP & Th+ peptides per NTGA” value was found to be 2; the “# Th+” value amounted to 0.
As for 17 (VDNVNSIIGPALIGK) [compound 17], the “# Th+” value in assay [1] is reported as 0.
For 18 (ENRSVLHVALRAPRD) [compound 18], in assay [1], the “No of PG+ & th+ peptides per NTGA” value is 0, the “No of PP & Th+ peptides per NTGA” value was determined as 0 and the “# Th+” value came out at 0.
On to 21 (VVSKTFTTAETMLNA) [compound 21], for which, in assay [1], the “No of PG+ & th+ peptides per NTGA” value is listed as 0, the “No of PP & Th+ peptides per NTGA” value was 0 and the “# Th+” value turned out to be 0.
In the case of 23 (RYSVCSAVGVLPLSL) [compound 23], in assay [1], the “# Th+” value is 0.
Still for that read-out and setting: the same measure for 25 (VLLGLLSVWNVSFLG) [compound 25]: 0.
For the substance 28 (NGQHSFYQLIHQGRV) [compound 28], in assay [1], the “No of PG+ & th+ peptides per NTGA” value amounted to 0, the “No of PP & Th+ peptides per NTGA” value is given as 0 and the “# Th+” value was found to be 0.
As to 31 (QGFIWGINSFDQWGV) [compound 31], in assay [1], the “No of PG+ & th+ peptides per NTGA” value stood at 0, the “No of PP & Th+ peptides per NTGA” value is given as 0 and the “# Th+” value is reported as 0.
In the case of 33 (DDGKVYLEMSYYFEI) [compound 33], in assay [1], the “No of PG+ & th+ peptides per NTGA” value was 0, the “No of PP & Th+ peptides per NTGA” value worked out at 0 and the “# Th+” value was found to be 0.
Consider 35 (RNMVLGKRFFVTPSD) [compound 35], for which, in assay [1], the “NTGA's containing” value was determined as 35; the “No of PG+ & th+ peptides per NTGA” value is recorded as 2; the “No of PP & Th+ peptides per NTGA” value amounted to 1; the “# Th+” value amounted to 0.
For 36 (KRFFVTPSDSVAIIA) [compound 36], in assay [1], the “No of PG+ & th+ peptides per NTGA” value amounted to 0, the “No of PP & Th+ peptides per NTGA” value came to 0 and the “# Th+” value stood at 0.
Take 37 (SDSVAIIAANAVQSI) [compound 37]: the “# Th+” value in assay [1] is 0.
Regarding 38 (AVQSIPYFASGLKGV) [compound 38], in assay [1], the “No of PG+ & th+ peptides per NTGA” value amounted to 0, the “No of PP & Th+ peptides per NTGA” value is given as 0 and the “# Th+” value is on record as 0.
Turning to 40 (GIWAVLAWLSIIAYK) [compound 40], in assay [1], the “NTGA's containing” value turned out to be 40; the “No of PG+ & th+ peptides per NTGA” value is 2; the “No of PP & Th+ peptides per NTGA” value is on record as 2; the “# Th+” value came out at 0.
Take 41 (LVSVEDIVLQHWATY) [compound 41]: in assay [1], the “# Th+” value is recorded as 0.
On to QYAKEIWGITANPVP, for which the “Amb p % Reactivity” value in assay [2] (Amb p (weed) pollen extract, reactivity of extract as percentage of reactivity to the peptide, PBMCs expanded 14 days with the peptide) is recorded as 83%. Further, in assay [2] (setting [3]), the “Ant o % Reactivity” value is recorded as 2%, the “Bet v % Reactivity” value is reported as 73%, the “Lol p % Reactivity” value is 24% and the “Que a % Reactivity” value is 32%. Further, the “Cyn d % Reactivity” value in assay [2] (Cyn d (grass) pollen extract, reactivity of extract as percentage of reactivity to the peptide, PBMCs expanded 14 days with the peptide) is reported as 10%. The “Ole e % Reactivity” value in assay [2] (Ole e (tree) pollen extract, reactivity of extract as percentage of reactivity to the peptide, PBMCs expanded 14 days with the peptide) turned out to be 44%. Moreover, in assay [2] (Pla l (weed) pollen extract, reactivity of extract as percentage of reactivity to the peptide, PBMCs expanded 14 days with the peptide), the “Pla l % Reactivity” value was determined as 15%. Further, in assay [2] (Poa p (grass) pollen extract, reactivity of extract as percentage of reactivity to the peptide, PBMCs expanded 14 days with the peptide), the “Poa p % Reactivity” value worked out at 22%. In addition, the “Controls, Irrelevant Pool” value in assay [2] (control: response to irrelevant pool of cells expanded with the peptide) is listed as 7. Moreover, in assay [2], the “Controls, Relevant Pool” value worked out at 100 and the “% Reactivity, Fra e” value is 12%.
Turning to SDAKTLVLNIKYTRP, the “Controls, Relevant Pool” value in assay [2] was 88 and 100 and 81 and 80.
Consider STWYGKPTGAGPKDN, for which, in assay [2] (setting [3]), the “Ant o % Reactivity” value is 51% and 64%; the “Bet v % Reactivity” value came out at 0%; the “Lol p % Reactivity” value was 64% and 40%; the “Que a % Reactivity” value was 1% and 0%. The “% Reactivity, Fra e” value in assay [2] is 1% and 0%.
